In publication PMC9570233, “Improving Both the Thermostability and Catalytic Efficiency of Phospholipase D from Moritella sp. JT01 through Disulfide Bond Engineering Strategy” (International Journal of Molecular Sciences, 2022) one finds Km data, which are given here for 1 substance.

Numbering of substitutions follows the chain as printed.

Assay [1] has as its target T1, MsPLD (Moritella sp. JT01, UniProt A0A137SLD1).
T1 construct: gene AKG98_3441; tag removal not mentioned
T1 sequence (A0A137SLD1 29-578): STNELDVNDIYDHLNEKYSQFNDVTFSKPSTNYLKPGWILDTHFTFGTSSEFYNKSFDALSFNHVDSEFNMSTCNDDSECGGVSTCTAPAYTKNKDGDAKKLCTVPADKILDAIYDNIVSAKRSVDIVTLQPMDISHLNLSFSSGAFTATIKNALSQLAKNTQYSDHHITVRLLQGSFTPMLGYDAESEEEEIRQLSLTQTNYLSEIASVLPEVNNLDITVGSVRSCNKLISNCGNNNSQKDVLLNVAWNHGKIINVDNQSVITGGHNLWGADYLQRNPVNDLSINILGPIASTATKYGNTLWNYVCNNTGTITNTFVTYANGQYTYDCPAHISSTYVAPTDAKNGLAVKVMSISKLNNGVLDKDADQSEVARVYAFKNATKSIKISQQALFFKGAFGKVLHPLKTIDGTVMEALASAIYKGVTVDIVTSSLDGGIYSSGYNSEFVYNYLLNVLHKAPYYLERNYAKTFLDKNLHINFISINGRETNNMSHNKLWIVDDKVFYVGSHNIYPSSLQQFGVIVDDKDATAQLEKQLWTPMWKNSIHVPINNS
The experiment in a line: coupled choline oxidase/peroxidase colorimetric assay ([…] nm), non-linear regression. It is filed as biochemical. Conditions: 35 °C, pH 8.0, PC 1.0-3.0 mM, 5 min; hydrolysis; free enzyme.

Assay [2] has as its target T2, MsPLD (Moritella sp. JT01, UniProt A0A137SLD1, S169C/T227C/D246C/A349C).
T2 construct: gene AKG98_3441; tag removal not mentioned
T2 sequence (A0A137SLD1 29-578 S169C/T227C/D246C/A349C): T1 sequence (A0A137SLD1 29-578) with S141C, T199C, D218C, A321C
The assay is described as above. Particulars: 35 °C, pH 8.0, PC 1.0-3.0 mM, 5 min; hydrolysis; free enzyme. The format is biochemical.

On to L-α-phosphatidylcholine, for which the Km (in general, the substrate concentration at which the rate is half of its maximum) in assay [1] worked out at 3.44 ± 0.81 mM; in assay [2], 2.71 ± 0.89 mM.
